Measurements: US8309725B2 (priority 2007, dated 2012)
Read-outs that look alike come from different tables or passages of the source.

Experiments:
[1] = target: T1, κ receptor (Cavia porcellus, UniProt P41144); experiment: biochemical; format: binding, guinea pig
T1 construct: sucrose solution (0.32 M) was added to five guinea pig brains and the mixture was homogenized; from tissue; host or cells: whole guinea pig brain membrane homogenate

[2] = tested on: male NMRI mice; conditions: mouse, in vivo

T1 sequence (P41144 whole entry): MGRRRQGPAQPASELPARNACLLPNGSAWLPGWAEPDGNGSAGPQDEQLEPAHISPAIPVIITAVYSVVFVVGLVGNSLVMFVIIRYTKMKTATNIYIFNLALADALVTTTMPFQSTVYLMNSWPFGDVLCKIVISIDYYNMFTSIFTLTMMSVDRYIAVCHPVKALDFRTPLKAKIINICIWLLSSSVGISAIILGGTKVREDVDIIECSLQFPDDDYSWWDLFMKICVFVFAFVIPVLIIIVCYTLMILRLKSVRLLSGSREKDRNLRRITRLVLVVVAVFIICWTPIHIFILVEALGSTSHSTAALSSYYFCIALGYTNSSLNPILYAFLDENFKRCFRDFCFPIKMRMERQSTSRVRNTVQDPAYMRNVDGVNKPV

With O=C(c1ccccc1)N1CCN(C(=O)Cc2ccc(Cl)c(Cl)c2)C2C(N3CCC(O)C3)CCCC21 (stereo not drawn) [Example 14, 1-{(4aRS,8SR,8aSR)-4-benzoyl-8-[(3SR)- and (3RS)-3-hydroxypyrrolidin-1-yl]-perhydroquinoxalin-1-yl}-2-(3,4-dichlorophenyl)ethan-1-one] the Ki ([1]; read-out: κ: Ki ± SEM) was 22 ± 5.6 nM.
Work on COC(=O)CC(=O)N1CCN(C(=O)Cc2ccc(Cl)c(Cl)c2)[C@H]2[C@H]1CCC[C@@H]2N1CCCC1 (racemic) [Example 13, methyl 3-{(4aRS,8SR,8aRS)-1-[2-(3,4-dichlorophenyl)acetyl]-8-(pyrrolidin-1-yl)-perhydroquinoxalin-4-yl}-3-oxopropionate] yielded a Ki [1] of 11 ± 5.6 nM.
CCCCN1CCN(C(=O)Cc2ccc(Cl)c(Cl)c2)[C@H]2[C@H]1CCC[C@@H]2N1CCCC1 (racemic) [Example 19, 1-[(4aRS,8SR,8aRS)-4-butyl-8-(pyrrolidin-1-yl)perhydroquinoxalin-1-yl]-2-(3,4-dichlorophenyl)-ethan-1-one] was tested, and the Ki [1] was 3.1 ± 1.8 nM.
Work on COC(=O)CC(=O)N1CCN(C(=O)Cc2ccc(Cl)c(Cl)c2)C2C(N3CCC(O)C3)CCCC21 (stereo not drawn) [Example 17, methyl 3-{(4aRS,8SR,8aRS)-1-[2-(3,4-dichlorophenyl)acetyl]-8-[(3SR)- and (3RS)-3-hydroxypyrrolidin-1-yl]-perhydroquinoxalin-4-yl}-3-oxopropionate] yielded a Ki ([1]; read-out: κ: Ki ± SEM) of 18 ± 2.2 nM.
Work on COC(=O)N1CCN(C(=O)Cc2ccc(Cl)c(Cl)c2)C2C(N3CCC(O)C3)CCCC21 (stereo not drawn) [Example 15, methyl{(4aRS,8SR,8aRS)-1-[2-(3,4-dichlorophenyl)acetyl]-8-[(3SR)- and (3RS)-3-hydroxypyrrolidin-1-yl]-perhydroquinoxalin-4-yl}carboxylate] yielded a Ki ([1]; read-out: κ: Ki ± SEM) of 11 ± 2.8 nM.
COc1ccc(CN2CCN(C(=O)Cc3ccc(Cl)c(Cl)c3)[C@H]3[C@H]2CCC[C@@H]3N2CCCC2)cc1 (racemic) [Example 20, 2-(3,4-dichlorophenyl)-1-[(4aRS,8SR,8aRS)-4-(4-methoxybenzyl)-8-(pyrrolidin-1-yl)-perhydroquinoxalin-1-yl]ethan-1-one] gave a Ki [1] of 6.8 ± 2 nM.
Work on O=C(O)CC(=O)N1CCN(C(=O)Cc2ccc(Cl)c(Cl)c2)C2C(N3CCC(O)C3)CCCC21 (stereo not drawn) [Example 16, 3-{(4aRS,8SR,8aRS)-1-[2-(3,4-dichlorophenyl)acetyl]-8-[(3SR)- and (3RS)-3-hydroxypyrrolidin-1-yl]-perhydroquinoxalin-4-yl}-3-oxopropionic acid] yielded a Ki ([1]; read-out: κ: Ki ± SEM) of 482 ± 113 nM.
Work on O=C(Cc1ccc(Cl)c(Cl)c1)N1CCN(Cc2cccnc2)C2CCCC(N3CCC(O)C3)C21 (stereo not drawn) [Example 25, 2-(3,4-dichlorophenyl)-1-{(4aRS,8SR,8aSR)-4-[(pyridin-3-yl)methyl]-8-[(3SR)- and (3RS)-3-hydroxypyrrolidin-1-yl]perhydroquinoxalin-1-yl}ethan-1-one] yielded a Ki ([1]; read-out: κ: Ki ± SEM) of 3.8 ± 0.7 nM.
Work on O=C(Cc1ccc(Cl)c(Cl)c1)N1CCN(Cc2ccccn2)[C@@H]2CCC[C@H](N3CCCC3)[C@H]21 (racemic) [Example 21, 2-(3,4-dichlorophenyl)-1-{(4aRS,8SR,8aRS)-4-[(pyridin-2-yl)methyl]-8-(pyrrolidin-1-yl)perhydroquinoxalin-1-yl}ethan-1-one] yielded a Ki [1] of 4.2 ± 2.6 nM.
With O=C(Cc1ccc(Cl)c(Cl)c1)N1CCN(Cc2ccccc2)C2CCCC(N3CCC(O)C3)C21 (stereo not drawn) [Example 5, 1-{(4aRS,8SR,8aSR)-4-benzyl-8-[(3SR)- and (3RS)-3-hydroxypyrrolidin-1-yl]perhydroquinoxalin-1-yl}-2-(3,4-dichlorophenyl)ethan-1-one] the Ki ([1]; read-out: κ: Ki ± SEM) was 6.6 ± 1.4 nM.
In the case of “2-(3,4-dichlorophenyl)-1-{(4aRS,8SR,8aSR)-8-[(3SR)-3-hydroxypyrrolidin-1-yl]perhydroquinoxalin-1-yl}ethan-1-one and 2-(3,4-dichlorophenyl)-1-{(4aRS,8SR,8aSR)-8-[(3RS)-3-hydroxypyrrolidin-1-yl]perhydroquinoxalin-1-yl}ethan-1-one [Example 2]”, the “reduction in the pain in the models of the centrally mediated types of pain” value [2] is reported as “no significant reduction in the pain”.
O=C(Cc1ccc(Cl)c(Cl)c1)N1CCN(Cc2cccnc2)[C@@H]2CCC[C@H](N3CCCC3)[C@H]21 (racemic) [Example 22, 2-(3,4-dichlorophenyl)-1-{(4aRS,8SR,8aRS)-4-[(pyridin-3-yl)methyl]-8-(pyrrolidin-1-yl)perhydroquinoxalin-1-yl}ethan-1-one] gave a Ki [1] of 0.13 ± 0.02 nM.
